According to patent US20230332252A1, “CELL-FREE BIOSENSORS WITH DNA STRAND DISPLACEMENT CIRCUITS AND POLYMERASE STRAND RECYCLING (PSR)” (Northwestern University, priority 2021, published 2023):

Key:
[1] = target: T1, SmtB (Synechococcus elongatus, UniProt P30340); test: SmtB-regulated in vitro transcription of InvadeR with TMSD fluorescence output; format: biochemical; settings: improved smtO-hairpin-InvadeR design, low background signal
T1 construct: 6xHis (C); made in house; host or cells: E. coli Rosetta 2(DE3)pLysS, pET-28c backbone (pJBL725)
T1 sequence (P30340 with tags, fused parts or gaps): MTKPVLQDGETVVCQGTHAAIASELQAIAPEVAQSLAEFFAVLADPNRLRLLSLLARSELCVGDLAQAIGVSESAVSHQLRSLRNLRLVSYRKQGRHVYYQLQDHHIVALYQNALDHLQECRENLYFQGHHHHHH
Protocol: (§1) In addition to TetR, we chose TtgR [44] and SmtB [45] as representative aTFs of the MarR family and SmtB/ArsR family, respectively. We placed the cognate operator sequence of each aTF 2-bp downstream of the T7 promoter and immediately upstream of the InvadeR sequences (FIG. 4a-c). When tetracycline was used to induce TetR-regulated reactions, we observed a strong and robust fluorescent signal visible in ˜10 minutes (FIG. 4d, FIG. 13a). […] We note that we observed a slight decrease in the induction speed from the TtgR-regulated reactions compared to that of the TetR-regulated reactions, likely due to the reduced ttgO DNA template concentration needed to accommodate TtgR's relatively weak binding affinity to its operator sequence.
We were immediately successful in adapting the system to TetR and TtgR (FIG. 4a, b). […]
(§2) Regulated IVT reactions additionally included a purified aTF at the indicated concentration and were equilibrated at 37° C. for ˜10 minutes. Immediately prior to plate reader measurements, 2 ng of T7 RNAP and, optionally, a ligand at the indicated concentration were added to the reaction. Reactions were then characterized on a plate reader as described in Plate reader quantification and micromolar equivalent fluorescein (MEF) standardization.

[2] = target: T2, TetR (Escherichia coli, UniProt P04483); test: biochemical
T2 construct: made in house; host or cells: E. coli Rosetta 2(DE3)pLysS, pET-28c backbone (pJBL701)
Protocol: To test if this spacing remained important in the TMSD platform, we used TetR as our model aTF to determine the optimum spacing for efficient repression in the presence of TetR and efficient transcription in the absence of TetR [41]. We used the native sequence that follows the canonical T7 RNAP promoter as a spacer in 2-bp increments from 0 to 10-bp, immediately followed by the tetO sequence and InvadeR sequence (FIG. 3a). IVT reactions were set up using 50 nM DNA template with or without purified recombinant TetR protein in 100-fold excess of the DNA template. […]
Using the 2-bp spacer, we next determined whether TetR can be de-repressed with its cognate ligand, anhydrotetracycline (aTc) to allow transcription of InvadeR (FIG. 3c). […]
Homemade IVT reactions were set up by adding the following components listed at their final concentration: IVT buffer (40 mM Tris-HCl pH 8, 8 mM MgCl2, 10 mM DTT, 20 mM NaCl, and 2 mM spermidine), 11.4 mM NTPs pH 7.5, 0.3 U thermostable inorganic pyrophosphatase (#M0296S, New England Biolabs), transcription template, DNA gate(s) and MilliQ ultrapure H2O to a total volume of 20 μL. […] Immediately prior to plate reader measurements, 2 ng of T7 RNAP and, optionally, a ligand at the indicated concentration were added to the reaction.

[3] = target: T3, TtgR (Pseudomonas putida, UniProt Q88N29); test: TtgR-regulated in vitro transcription of InvadeR with TMSD fluorescence output; format: biochemical; settings: TtgR-regulated reactions, with versus without ligand
T3 construct: made in house; host or cells: E. coli Rosetta 2(DE3)pLysS, pET-28c backbone (pJBL721)
T3 sequence (Q88N29 other isoform, or with tags, fused parts or gaps): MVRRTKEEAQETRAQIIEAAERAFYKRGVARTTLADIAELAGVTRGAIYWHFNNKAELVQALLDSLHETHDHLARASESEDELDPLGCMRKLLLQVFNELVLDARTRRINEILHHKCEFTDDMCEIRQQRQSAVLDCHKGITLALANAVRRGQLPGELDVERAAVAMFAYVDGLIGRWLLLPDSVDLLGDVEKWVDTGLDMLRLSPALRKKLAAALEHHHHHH
Protocol: as §1, §2

With O=S(=O)([O-])[O-].[Zn+2] [ZnSO4] the “fluorescence activation by ligand” value [1] was “clear activation”.

Cc1c2c(c(O)c3c(O)cccc13)C(=O)[C@]1(O)C(=O)C(C(N)=O)=C(O)[C@@H](N(C)C)[C@@H]1C2 [aTc, anhydrotetracycline] showed an EC50 [2] of 2.5 to 5 µM.

In the case of O=C1C[C@@H](c2ccc(O)cc2)Oc2cc(O)cc(O)c21 [naringenin], the “fluorescence activation by ligand” value [3] is reported as “robust fluorescence activation only in the presence of the ligand”.
